Measurements as given in EP1235833B1 (GLAXO GROUP LIMITED, priority 1999, dated 2001).

Test: Acid stability: acid-mediated hydrolytic decomposition, simulated stomach conditions, HPLC
Assay type: physicochemical
Details: for Compound left (%): 0.3 mg/mL in dilute hydrochloric acid at pH 1, 25°C
Method: Compounds were tested for their stability towards acid-mediated hydrolytic decomposition employing a test designed to simulate stomach conditions. Each compound was incubated at an initial concentration of 0.3 mg/mL in dilute hydrochloric acid at pH 1 for 24 hours at 25°C. HPLC was run immediately for t=0 and at intervals up to approximately 24 hours. The results for compounds of Example 2, part b, Example 9, and for comparative phosphoramidates of 2',3'-dideoxy-adenosine (Compound 1093) and 2',3'-didehydro-2',3'-dideoxy-adenosine (Compound 1001), described in W096/29336A, are given in the table below.

In the case of `COC(=O)C(C)(C)NP(=O)(OC[C@@H]1C=C[C@H](n2cnc3c(NCC4CC4)nc(N)nc32)C1)Oc1ccccc1` (relative stereo) [Example 9], the “Compound left (%)” value (Time 0 hr) is reported as 100%, the “Compound left (%)” value (Time 13 hr) is reported as 96% and the “Compound left (%)” value (Time 24 hr) is reported as 94%. For the same molecule, the “Acid stability in words” value (after 24 hours, dilute hydrochloric acid at pH 1, 25°C) was “remained intact”.
